Reference: paper PMC6804243, “Small-Molecule Inhibition of UBE2T/FANCL-Mediated Ubiquitylation in the Fanconi Anemia Pathway” (ACS Chemical Biology, 2019)

Experiments:
[1] = tested on: mUb-FANCD2 (UBE2T and FANCL-dependent monoubiquitylation of FANCD2); test: Immunoblot of mUb-FANCD2 formation in U2OS cells; format: cell-based; conditions: for level of mUb-FANCD2 in response to HU: CU1 200 μM or CU2 500 μM, 8 h; for level of mUb-FANCD2 in response to HU / level of mUb-FANCD2: HU 2.5 mM; for level of mUb-FANCD2: compound 100 μM, 1 h preincubation, 24 h
Experimental: U2OS cells were treated with HU and the formation of mUb-FANCD2 in the presence of CU 1, CU2, and CU9 was evaluated relative to a DMSO control. Following a 1-h preincubation with the compounds, cells were treated with 2.5 mM of HU for 24 h. […] Accordingly, cells were treated with a higher concentration of compounds in further experiments.
Figure 3 Cell-based assays with CU1 and CU2: (a) Western blot showing that the formation of mUb-FANCD2(*), in response to HU treatment (2.5 mM, 8 h), is impaired in U2OS cells in the presence of CU1 (200 μM) or CU2 (500 μM). Ratio = mUb-FANCD2/FANCD2 (normalized to DMSO control). mUb-FANCD2 was resolved on a separate gel. PARP1 was used as a loading control for each gel, as well as to assess apoptosis. (b) Quantification of the reduction in mUb-FANCD2, in response to HU treatment (2.5 mM, 8 h) in the presence of CU1 (200 μM) or CU2 (500 μM). Mean calculated from three independent experiments. (c) Western blot showing that formation of mUb-FANCD2 (denoted by an asterisk symbol, *) in response to cisplatin treatment (10 μM) for 6, 12, and 24 h is impaired in U2OS cells in the presence of CU2 (500 μM). Ratio = mUb-FANCD2/FANCD2 (normalized to DMSO control). (d) Cell cycle analyses based upon EdU incorporation in cells treated with HU (2.5 mM, 8 h) in the presence or absence of CU1 (200 μM) or CU2 (500 μM). HU treatment was used for gating purposes. […] TEXT PRINTED IN THE PICTURE: (d) DMSO: S-phase 42.7; G1 29.2; G2-M 27.8 | (d) HU: S-phase 0.24; G1 72.4; G2-M 22.9 | (d) CU1: S-phase 43.4; G1 26.8; G2-M 29.1 | (d) CU2: S-phase 39.7; G1 31.9; G2-M 28.2 DOUBTS OF THE COPYIST ABOUT THIS PICTURE: Panel d print is small, so these digits are best readings: DMSO G2-M 27.8 (8 or 6); CU1 G1 26.8 (6 or 8); CU2 S-phase 39.7 (9 or 8); CU2 G2-M 28.2 (8 or 6) / Panels a and c: the lane ratios printed under the western blots (a: 1.0, 0.64, 0.40; c: 1.0/0.65, 1.0/0.63, 1.0/0.53) were left out because they belong to blots and the picture prints no measure for them […]
Reaction mixtures were incubated for the indicated time at 37 °C and stopped by the addition of 2X reducing SDS -PAGE sample buffer, separated on NuPAGE Novex 4 –12% Bis/Tris gradient gels (Invitrogen) and visualized by Western blotting using the indicated antibodies (Table S3).
Cell culture. U2OS cells were cultured at 37 °C in a humidified atmosphere and 5% (v/v) CO2 in Dulbecco's Modified Eagle Medium (DMEM; Sigma-Aldrich) supplemented with 10% (v/v) fetal bovine serum (FBS), 100 units/ml of penicillin, […] of streptomycin and 292 μg/mL L-glutamine.
Cell extract preparation and immunoblotting. U2OS cells were lysed in buffer containing 50 mM Tris-HCl pH 7.5, 2% SDS, 10 mM NEM, cocktail protease inhibitor (Roche) and phosphatase inhibitor cocktail followed by sonication 100 µg of extracts were boiled for 5 mins at 95 °C in 5X loading buffer and loaded onto NuPAGE Novex 4–12% Bis/Tris gradient gels
(Invitrogen), or NuPAGE Novex 3-8% Tris/Acetate gradient gels (Invitrogen) for detection of mUb-FANCD2. After separation the gels were transferred to PVDF and the membranes were blocked with Tris-buffered saline containing 0.1% (v/v) Tween-20 (TBST) and 5% (v/v) bovine serum albumin (BSA) and incubated with the indicated primary and secondary antibodies. mUb-FANCD2 intensity was quantified using Image Studio (LI-COR).
IncuCyte cell proliferation assays. 2000 U2OS cells were seeded per well in 96-well plates and treated with compounds 24 hours afterwards. After 1 hour of compound treatment, 15 µM carboplatin (Sigma-Aldrich) was added and the cells were cultured in an incubator with an IncuCyte microscopy -platform (Essen BioScience). Phase -contrast images were acquired every 6 hours for 8 days until DMSO-carboplatin treated cells reached >80% confluence. Cell proliferation was monitored as the occupied area (% confluence) of cell images over time and calculated as percentage confluence over time. Cell confluency […]

UBE1 = tested on: T1, UBE1; test: Gel-based ubiquitylation assay (UBE2T/GST-FANCLRING), autoubiquitylation of UBE1; format: biochemical; conditions: compound 100 μM; Western blot probed for biotin
T1 construct: purchased Boston Biochem

Row | SMILES | level of mUb-FANCD2 in response to HU [1] | level of mUb-FANCD2 [1] | autoubiquitylation of UBE1 (UBE1) | level of mUb-FANCD2 in response to cisplatin ([1]; CU2 500 μM, cisplatin 10 μM for 6, 12 and 24 h)
1 | NCCN1C(=O)CC[C@H]2CN(Cc3cccc(-c4ccco4)c3)CC[C@H]21 [CU1] | reduced the level of mUb-FANCD2 | no significant decrease in the level of mUb-FANCD2 | did not affect ubiquitylation of either UBE2T or UBE1 | –
2 | CCN1CCN(c2cc(C)nc3nc(CN4CCCCC4C)nn23)CC1 (stereo not shown) [CU2] | reduced the level of mUb-FANCD2 | no significant decrease in the level of mUb-FANCD2 | did not affect ubiquitylation of either UBE2T or UBE1 | reduced the level of mUb-FANCD2
3 | Cc1nnc(N(C)CC2CCN(CC(C)O)CC2)c(C#N)c1C (stereo not shown) [CU9] | – | no significant decrease in the level of mUb-FANCD2 | did not affect ubiquitylation of either UBE2T or UBE1 | –
4 | NC(=O)[C@@H]1CCCN1C(=O)c1cc(-n2cccc2)ccc1Cl [CU12] | – | – | somewhat impaired the autoubiquitylation of UBE1 | –
